According to patent US20040156869A1, “2-substituted quinazolin-4-ylamine analogues” (Neurogen Corporation, priority 2002, published 2004):
pKi: −log10 of the molar value.

target: human capsaicin receptor (VR1) (Homo sapiens, UniProt Q8NER1); test: Capsaicin receptor binding assay ([3H]RTX competition, VR1-transfected HEK293 membranes)
Sequence (Q8NER1 whole entry): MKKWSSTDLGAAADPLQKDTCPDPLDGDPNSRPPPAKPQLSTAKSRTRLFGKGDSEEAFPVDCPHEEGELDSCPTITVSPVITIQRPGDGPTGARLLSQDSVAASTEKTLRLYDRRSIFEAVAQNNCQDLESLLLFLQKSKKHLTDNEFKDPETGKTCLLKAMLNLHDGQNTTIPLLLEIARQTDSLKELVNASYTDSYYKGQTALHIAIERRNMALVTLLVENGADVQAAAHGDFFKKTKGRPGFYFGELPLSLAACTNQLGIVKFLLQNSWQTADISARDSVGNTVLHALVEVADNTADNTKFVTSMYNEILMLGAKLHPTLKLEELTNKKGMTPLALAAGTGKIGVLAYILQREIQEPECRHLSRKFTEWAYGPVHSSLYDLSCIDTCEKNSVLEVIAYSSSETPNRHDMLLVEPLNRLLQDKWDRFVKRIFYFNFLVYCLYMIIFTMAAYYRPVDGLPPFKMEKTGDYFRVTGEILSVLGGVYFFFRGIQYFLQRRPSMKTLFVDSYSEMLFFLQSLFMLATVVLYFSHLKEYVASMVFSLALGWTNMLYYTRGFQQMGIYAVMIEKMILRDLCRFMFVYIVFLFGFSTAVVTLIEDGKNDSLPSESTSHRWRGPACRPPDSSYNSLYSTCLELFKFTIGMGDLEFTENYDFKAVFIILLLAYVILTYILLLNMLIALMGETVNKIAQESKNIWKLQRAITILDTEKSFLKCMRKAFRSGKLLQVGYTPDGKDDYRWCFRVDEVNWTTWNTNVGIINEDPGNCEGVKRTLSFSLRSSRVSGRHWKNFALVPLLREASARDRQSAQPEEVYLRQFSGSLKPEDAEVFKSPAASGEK
Experimental: Human embryonic kidney (HEK293) cells were transfected with the pBK-CMV expression construct encoding the full length human capsaicin receptor using standard methods. The transfected cells were selected for two weeks in media containing G418 (400 μg/ml) to obtain a pool of stably transfected cells. Independent clones were isolated from this pool by limiting dilution to obtain clonal stable cell lines for use in subsequent experiments.
For radioligand binding experiments, cells were seeded in T175 cell culture flasks in media without antibiotics and grown to approximately 90% confluency. The flasks were then washed with PBS and harvested in PBS containing 5 mM EDTA. The cells were pelleted by gentle centrifugation and stored at −80° C. until assayed.
Previously frozen cells were disrupted with the aid of a tissue homogenizer in ice-cold HEPES homogenization buffer (5 mM KCl 5, 5.8 mM NaCl, 0.75 mM CaCl2, 2 mM MgCl2, 320 mM sucrose, and 10 mM HEPES pH 7.4). Tissue homogenates were first centrifuged for 10 minutes at 1000×g (4° C.) to remove the nuclear fraction and debris, and then the supernatant from the first centrifugation is further centrifuged for 30 minutes at 35,000×g (4° C.) to obtain a partially purified membrane fraction. Membranes were resuspended in the HEPES homogenization buffer prior to the assay. An aliquot of this membrane homogenate was used to determine protein concentration via the Bradford method (BIO-RAD Protein Assay Kit, #500-0001, BIO-RAD, Hercules, Calif.).
Binding studies with [^3H] […] In this protocol, non-specific RTX binding is reduced by adding bovine alpha1 acid glycoprotein (100 μg per tube) after the binding reaction has been terminated.
Binding assay mixtures are set up on ice and contain [^3H]RTX (specific activity 2200 mCi/ml), 2 μl non-radioactive test compound, 0.25 mg/ml bovine serum albumin (Cohn fraction V), and 5×10^4-1×10^5 VR1-transfected cells. The final volume is adjusted to 500 μl (for competition binding assays) or 1,000 μl (for saturation binding assays) with the ice-cold HEPES homogenization buffer solution (pH 7.4) described above. Non-specific binding is defined as that occurring in the presence of 1 μM non-radioactive RTX (Alexis Corp.; San Diego, Calif.). For saturation binding, [^3H]RTX is added in the concentration range of 7-1,000 pM, using 1 to 2 dilutions. Typically 11 concentration points are collected per saturation binding curve.
Competition binding assays are performed in the presence of 60 pM [^3 H]RTX and various concentrations of test compound. The binding reactions are initiated by transferring the assay mixtures into a 37° C. water bath and are terminated following a 60 minute incubation period by cooling the tubes on ice. Membrane-bound RTX is separated from free, as well as any alpha,-acid glycoprotein-bound RTX, by filtration onto WALLAC glass fiber filters (PERKIN-ELMER, Gaithersburg, Md.) which were pre-soaked with 1.0% PEI (polyethyleneimine) for 2 hours prior to use.

SMILES	pKi
CC(C)CNCc1nc(Nc2ccc(C(F)(F)F)cc2)c2ccc(-c3ncccc3C(F)(F)F)cc2n1 [Compound 536, [2-(Isobutylamino-methyl)-7-(3-trifluoromethyl-pyridin-2-yl)-quinazolin-4-yl]-(4-trifluoromethyl-phenyl)-amine]	> 6.00
CC(c1ccccc1)N(C)Cc1nc(Nc2ccc(C(F)(F)F)cc2)c2ccc(-c3ncccc3C(F)(F)F)cc2n1 (centres unmarked) [Compound 323, [2-{[Methyl-(1-phenyl-ethyl)-amino]-methyl}-7-(3-trifluoromethyl-pyridin-2-yl)-quinazolin-4-yl]-(4-trifluoromethyl-phenyl)-amine]	> 6.00
CC(=O)C(C)(C)c1ccc(Nc2nc(COCC(C)C)nc3nc(-c4ncccc4Cl)ccc23)cc1 [Compound 210, 3-{4-[7-(3-Chloro-pyridin-2-yl)-2-isobutoxymethyl-pyrido[2,3-d]pyrimidin-4-ylamino]-phenyl}-3-methyl-butan-2-one]	> 6.00
CC(C)(C)c1ccc(Nc2nc(CO)nc3cc(-c4ncccc4Cl)ccc23)cc1 [Compound 157, [4-(4-tert-Butyl-phenylamino)-7-(3-chloro-pyridin-2-yl)-quinazolin-2-yl]-methanol]	> 6.00
CCCNC(=O)c1nc(Nc2ccc(C(F)(F)F)cc2)c2ccc(-c3ncccc3C(F)(F)F)nc2n1 [Compound 452, 4-(4-Trifluoromethyl-phenylamino)-7-(3-trifluoromethyl-pyridin-2-yl)-pyrido[2,3-d]pyrimidine-2-carboxylic acid propylamide]	> 6.00
FC(F)(F)c1ccc(Nc2nc(CNCc3ccccn3)nc3cc(-c4ncccc4C(F)(F)F)ccc23)cn1 [Compound 578, [2-{[(Pyridin-2-ylmethyl)-amino]-methyl}-7-(3-trifluoromethyl-pyridin-2-yl)-quinazolin-4-yl]-(6-trifluoromethyl-pyridin-3-yl)-amine]	> 6.00
CCOC(=O)N1CCN(Cc2nc(Nc3ccc(C(F)(F)F)nc3)c3ccc(-c4ncccc4C(F)(F)F)cc3n2)CC1 [Compound 483, 4-[7-(3-Trifluoromethyl-pyridin-2-yl)-4-(6-trifluoromethyl-pyridin-3-ylamino)-quinazolin-2-ylmethyl]-piperazine-1-carboxylic acid ethyl ester]	> 6.00
CC(=O)OCc1nc(Nc2ccc(C(F)(F)F)cc2)c2ccc(-c3ncccc3C(F)(F)F)cc2n1 [Compound 9, Acetic acid 4-(4-trifluoromethyl-phenylamino)-7-(3-trifluoromethyl-pyridin-2-yl)-quinazolin-2-ylmethyl ester]	> 6.00
O=C(c1nc(Nc2ccc(C(F)(F)F)cc2)c2ccc(-c3ncccc3C(F)(F)F)nc2n1)N1CCOCC1 [Compound 461, Morpholin-4-yl-[4-(4-trifluoromethyl-phenylamino)-7-(3-trifluoromethyl-pyridin-2-yl)-pyrido[2,3-d]pyrimidin-2-yl]-methanone]	> 6.00
C[C@@H]1CN(Cc2nc(Nc3ccc(C(C)(C)C)cc3)c3ccc(-c4ccccn4)cc3n2)C[C@H](C)O1 [Compound 636, (4-tert-Butyl-phenyl)-[2-(2,6-dimethyl-morpholin-4-ylmethyl)-7-pyridin-2-yl-quinazolin-4-yl]-amine (cis)]	> 6.00
CN(C)CCCCOCc1nc(Nc2ccc(C(C)(C)C)cc2)c2ccc(-c3ncccc3C(F)(F)F)cc2n1 [Compound 111, (4-tert-Butyl-phenyl)-[2-(4-dimethylamino-butoxymethyl)-7-(3-trifluoromethyl-pyridin-2-yl)-quinazolin-4-yl]-amine]	> 6.00
COCc1nc(Nc2ccc(C3CCCCC3)cc2)c2ncc(-c3ncccc3C(F)(F)F)cc2n1 [Compound 56, (4-Cyclohexyl-phenyl)-[2-methoxymethyl-7-(3-trifluoromethyl-pyridin-2-yl)-pyrido[3,2-d]pyrimidin-4-yl]-amine]	> 6.00
O=C(NCC1CCCO1)c1nc(Nc2ccc(C(F)(F)F)cc2)c2ccc(-c3ncccc3C(F)(F)F)nc2n1 (centres unmarked) [Compound 457, 4-(4-Trifluoromethyl-phenylamino)-7-(3-trifluoromethyl-pyridin-2-yl)-pyrido[2,3-d]pyrimidine-2-carboxylic acid (tetrahydro-furan-2-ylmethyl)-amide]	> 6.00
CC(C)c1ccc(Nc2nc(CN3C[C@H](C)O[C@@H](C)C3)nc3cc(-c4ncccc4C(F)(F)F)ccc23)cc1 [Compound 640, (S,S)-[2-(2,6-Dimethyl-morpholin-4-ylmethyl)-7-(3-trifluoromethyl-pyridin-2-yl)-quinazolin-4-yl]-(4-isopropyl-phenyl)-amine]	> 6.00
COCCOCc1nc(Nc2ccc(C(C)(C)C)cc2)c2ccc(-c3ncccc3Cl)nc2n1 [Compound 75, (4-tert-Butyl-phenyl)-[7-(3-chloro-pyridin-2-yl)-2-(2-methoxy-ethoxymethyl)-pyrido[2,3-d]pyrimidin-4-yl]-amine]	> 6.00
COCc1nc(Nc2ccc(C(C)(C)C)nc2)c2ccc(-c3ncccc3C(F)(F)F)cc2n1 [Compound 74, (6-tert-Butyl-pyridin-3-yl)-[2-methoxymethyl-7-(3-trifluoromethyl-pyridin-2-yl)-quinazolin-4-yl]-amine]	> 6.00

SMILES	pKi
CCCN1CCC[C@H]1c1nc(Nc2ccc(C(F)(F)F)cc2)c2ccc(-c3ncccc3C(F)(F)F)cc2n1 [Compound 696, (S)-[2-(1-Propyl-pyrrolidin-2-yl)-7-(3-trifluoromethyl-pyridin-2-yl)-quinazolin-4-yl]-(4-trifluoromethyl-phenyl)-amine]	> 6.00
COc1ccccc1CNCc1nc(Nc2ccc(C(F)(F)F)nc2)c2ccc(-c3ncccc3C(F)(F)F)cc2n1 [Compound 576, [2-[(2-Methoxy-benzylamino)-methyl]-7-(3-trifluoromethyl-pyridin-2-yl)-quinazolin-4-yl]-(6-trifluoromethyl-pyridin-3-yl)-amine]	> 6.00
CC(C)c1ccc(Nc2nc(CO)nc3cc(-c4ncccc4Cl)ccc23)cc1 [Compound 158, [7-(3-Chloro-pyridin-2-yl)-4-(4-isopropyl-phenylamino)-quinazolin-2-yl]-methanol]	> 6.00
COCc1nc(Nc2ccc(S(=O)(=O)N3CCOCC3)cc2)c2ccc(-c3ncccc3C(F)(F)F)cc2n1 [Compound 126, [2-Methoxymethyl-7-(3-trifluoromethyl-pyridin-2-yl)-quinazolin-4-yl]-[4-(morpholine-4-sulfonyl)-phenyl]-amine]	> 6.00
OCC1CCCN(Cc2nc(Nc3ccc(C(F)(F)F)cc3)c3ccc(-c4ncccc4C(F)(F)F)cc3n2)C1 (centres unmarked) [Compound 502, {1-[4-(4-Trifluoromethyl-phenylamino)-7-(3-trifluoromethyl-pyridin-2-yl)-quinazolin-2-ylmethyl]-piperidin-3-yl}-methanol]	> 6.00
CCCOC(=O)N1CCN(CCc2nc(Nc3ccc(C(F)(F)F)cc3)c3ccc(-c4ncccc4C(F)(F)F)cc3n2)CC1 [Compound 585, 4-{2-[4-(4-Trifluoromethyl-phenylamino)-7-(3-trifluoromethyl-pyridin-2-yl)-quinazolin-2-yl]-ethyl}-piperazine-1-carboxylic acid propyl ester]	> 6.00
CC(C)(C)c1ccc(Nc2nc(CO)nc3cc(-c4ncccc4C(F)(F)F)cnc23)cc1 [Compound 201, [4-(4-tert-Butyl-phenylamino)-7-(3-trifluoromethyl-pyridin-2-yl)-pyrido[3,2-d]pyrimidin-2-yl]-methanol]	> 6.00
CN(C)Cc1nc(Nc2ccc(C(F)(F)F)nc2)c2ccc(-c3ncccc3C(F)(F)F)cc2n1 [Compound 366, [2-Dimethylaminomethyl-7-(3-trifluoromethyl-pyridin-2-yl)-quinazolin-4-yl]-(6-trifluoromethyl-pyridin-3-yl)-amine]	> 6.00
COCCN(CCOC)Cc1cc(Nc2ccc(C(F)(F)F)cc2)c2ccc(-c3ncccc3C(F)(F)F)nc2n1 [Compound 775, [2-{[Bis-(2-methoxy-ethyl)-amino]-methyl}-7-(3-trifluoromethyl-pyridin-2-yl)-[1,8]naphthyridin-4-yl]-(4-trifluoromethyl-phenyl)-amine]	> 6.00
C[C@@H]1CN(Cc2nc(Nc3ccc(C(F)(F)F)nc3)c3ccc(-c4ncccc4Cl)cc3n2)C[C@@H](C)O1 [Compound 610, (R,R)-[7-(3-Chloro-pyridin-2-yl)-2-(2,6-dimethyl-morpholin-4-ylmethyl)-quinazolin-4-yl]-(6-trifluoromethyl-pyridin-3-yl)-amine]	> 6.00
CCN(CCc1nc(Nc2ccc(C(F)(F)F)cc2)c2ccc(-c3ncccc3C(F)(F)F)cc2n1)C1CCCCC1 [Compound 426, [2-[(Cyclohexyl-ethyl-amino)-ethyl]-7-(3-trifluoromethyl-pyridin-2-yl)-quinazolin-4-yl]-(4-trifluoromethyl-phenyl)-amine]	> 6.00
CCCCCN(CCCCC)Cc1nc(Nc2ccc(C(F)(F)F)nc2)c2ccc(-c3ncccc3C(F)(F)F)cc2n1 [Compound 385, [2-Dipentylaminomethyl-7-(3-trifluoromethyl-pyridin-2-yl)-quinazolin-4-yl]-(6-trifluoromethyl-pyridin-3-yl)-amine]	> 6.00
COc1ccc(CNCc2nc(Nc3ccc(C(F)(F)F)nc3)c3ccc(-c4ncccc4C(F)(F)F)cc3n2)cc1 [Compound 577, [2-[(4-Methoxy-benzylamino)-methyl]-7-(3-trifluoromethyl-pyridin-2-yl)-quinazolin-4-yl]-(6-trifluoromethyl-pyridin-3-yl)-amine]	> 6.00
CC(C)COCc1nc(Nc2ccc(OC(F)(F)F)cc2)c2ccc(-c3ncccc3Cl)nc2n1 [Compound 180, [7-(3-Chloro-pyridin-2-yl)-2-isobutoxymethyl-pyrido[2,3-d]pyrimidin-4-yl]-(4-trifluoromethoxy-phenyl)-amine]	> 6.00
O=C(O)c1nc(Nc2ccc(C(F)(F)F)cc2)c2ccc(-c3ncccc3C(F)(F)F)cc2n1 [Compound 100, 4-(4-Trifluoromethyl-phenylamino)-7-(3-trifluoromethyl-pyridin-2-yl)-quinazoline-2-carboxylic acid]	> 6.00
COCc1nc(Nc2ccc(S(=O)(=O)C(F)(F)F)cc2)c2ccc(-c3nccnc3Cl)nc2n1 [Compound 239, [7-(3-Chloro-pyrazin-2-yl)-2-methoxymethyl-pyrido[2,3-d]pyrimidin-4-yl]-(4-trifluoromethanesulfonyl-phenyl)-amine]	> 6.00
